Experimental data: PubChem BioAssay AID248 (DTP/NCI, 2004)
Values joined by “and” are separate entries in the source; they are usually repeats but may differ in a detail not shown here. Identical values can stand only once. Toxic doses and inconclusive results are not listed. Rule as the data show it: active = T/C of 150% or more; inactive = T/C below 125%.

Tested on: L1210 leukemia ip in BDF1 mice, survival T/C
Experiment: NCI In Vivo Anticancer Drug Screen. Data for tumor model L1210 Leukemia (intraperitoneal) in B6D2F1 (BDF1) mice
Settings: endpoint: mean survival time, higher = longer survival
Summary of the method: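 In this screen, tumor-bearing mice given compound are compared to those given vehicle, and their survival values are reported as a treated-to-control quotient.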

[1] = dose: 100.0 mg/kg/injection, schedule: Q01DX001 (ip), vehicle: carboxymethylcellulose (CMC)
[2] = dose: 100.0 mg/kg/injection, schedule: Q04DX003 (ip), vehicle: Klucel (hydroxypropylcellulose) (HPC)
[3] = dose: 200.0 mg/kg/injection, schedule: Q01DX001 (ip), vehicle: carboxymethylcellulose (CMC)
[4] = dose: 200.0 mg/kg/injection, schedule: Q04DX003 (ip), vehicle: Klucel (hydroxypropylcellulose) (HPC)
[5] = dose: 400.0 mg/kg/injection, schedule: Q01DX001 (ip), vehicle: carboxymethylcellulose (CMC)
[6] = dose: 100.0 mg/kg/injection, schedule: Q04DX003 (ip), vehicle: saline with Tween-80
[7] = dose: 200.0 mg/kg/injection, schedule: Q04DX003 (ip), vehicle: saline with Tween-80
[8] = dose: 400.0 mg/kg/injection, schedule: Q04DX003 (ip), vehicle: saline with Tween-80
[9] = dose: 100.0 mg/kg/injection, schedule: Q01DX009 (ip), vehicle: Klucel (hydroxypropylcellulose) (HPC)
[10] = dose: 200.0 mg/kg/injection, schedule: Q01DX009 (ip), vehicle: Klucel (hydroxypropylcellulose) (HPC)
[11] = dose: 400.0 mg/kg/injection, schedule: Q01DX009 (ip), vehicle: Klucel (hydroxypropylcellulose) (HPC)
[12] = dose: 100.0 mg/kg/injection, schedule: Q04DX002 (ip), vehicle: Klucel (hydroxypropylcellulose) (HPC)
[13] = dose: 100.0 mg/kg/injection, schedule: Q01DX009 (ip), vehicle: saline with Tween-80
[14] = dose: 200.0 mg/kg/injection, schedule: Q01DX009 (ip), vehicle: saline with Tween-80
[15] = dose: 25.0 mg/kg/injection, schedule: Q01DX009 (ip), vehicle: Klucel (hydroxypropylcellulose) (HPC)
[16] = dose: 50.0 mg/kg/injection, schedule: Q01DX009 (ip), vehicle: Klucel (hydroxypropylcellulose) (HPC)

Measured: T/C

O=C1N(Br)C(=O)C(c2ccc(Cl)cc2)(c2ccc(Cl)cc2)N1Br
inactive: dose: 15.0 mg/kg/injection, schedule: Q01DX015 (ip), vehicle: carboxymethylcellulose (CMC) 89 % of control | dose: 30.0 mg/kg/injection, schedule: Q01DX015 (ip), vehicle: carboxymethylcellulose (CMC) 93 % of control | dose: 60.0 mg/kg/injection, schedule: Q01DX015 (ip), vehicle: carboxymethylcellulose (CMC) 88 % of control | [1] 95 % of control | dose: 100.0 mg/kg/injection, schedule: Q01DX009 (ip), vehicle: saline sonified 113 % of control | [2] 99 % of control | dose: 120.0 mg/kg/injection, schedule: Q01DX015 (ip), vehicle: carboxymethylcellulose (CMC) 93 % of control | [3] 90 % of control | dose: 200.0 mg/kg/injection, schedule: Q01DX009 (ip), vehicle: saline sonified 106 % of control | [4] 94 % of control | dose: 240.0 mg/kg/injection, schedule: Q01DX015 (ip), vehicle: carboxymethylcellulose (CMC) 95 % of control | dose: 360.0 mg/kg/injection, schedule: Q01DX015 (ip), vehicle: carboxymethylcellulose (CMC) 98 % of control | [5] 104 % of control | dose: 400.0 mg/kg/injection, schedule: Q01DX009 (ip), vehicle: saline sonified 99 % of control | dose: 400.0 mg/kg/injection, schedule: Q04DX003 (ip), vehicle: Klucel (hydroxypropylcellulose) (HPC) 100 % of control

Fc1ccc(N=C2c3ccccc3-c3ccccc32)cc1
inactive: [6] 93 % of control | [7] 93 % of control | [8] 95 % of control

CC1CCCCC1(C)C1C=CC(=O)OC1(C)C (centres undefined)
inactive: dose: 25.0 mg/kg/injection, schedule: Q04DX003 (ip), vehicle: saline 97 % of control | dose: 50.0 mg/kg/injection, schedule: Q04DX003 (ip), vehicle: saline 97 % of control | dose: 100.0 mg/kg/injection, schedule: Q04DX003 (ip), vehicle: saline 97 % of control

O/N=C/c1c(I)cc(I)c(O)c1I
inactive: [9] 101 % of control | [10] 106 % of control | [11] 90 % of control

CCCCCCCCCCCC(=O)Nc1ccc(N(C)C(C)=O)cc1
inactive: [9] 90 % of control | [12] 89 % of control | [10] 95 % of control | dose: 200.0 mg/kg/injection, schedule: Q04DX002 (ip), vehicle: Klucel (hydroxypropylcellulose) (HPC) 100 % of control | [11] 97 % of control | dose: 400.0 mg/kg/injection, schedule: Q04DX002 (ip), vehicle: Klucel (hydroxypropylcellulose) (HPC) 100 % of control

N#CC(c1ccccc1)c1cccnc1 (centres undefined)
inactive: [1] 94 % of control | [3] 92 % of control | [5] 89 % of control

CCCCC/C(C)=C1\Oc2c(C)c(C)cc(C)c2C1=O
inactive: dose: 100.0 mg/kg/injection, schedule: Q04DX002 (ip), vehicle: saline with Tween-80 100 % of control | dose: 200.0 mg/kg/injection, schedule: Q04DX002 (ip), vehicle: saline with Tween-80 107 % of control | dose: 400.0 mg/kg/injection, schedule: Q04DX002 (ip), vehicle: saline with Tween-80 114 % of control

Cc1ccccc1S(=O)(=O)NC1c2ccccc2Oc2ccccc21
inactive: dose: 75.0 mg/kg/injection, schedule: Q01DX001 (ip), vehicle: saline 96 % of control | dose: 75.0 mg/kg/injection, schedule: Q01DX009 (ip), vehicle: saline 86 % of control | dose: 150.0 mg/kg/injection, schedule: Q01DX001 (ip), vehicle: saline 86 % of control | dose: 300.0 mg/kg/injection, schedule: Q01DX001 (ip), vehicle: saline 86 % of control

NC(=O)NC(C(=O)O)(c1ccccc1)C1CCC1 (centres undefined)
inactive: dose: 50.0 mg/kg/injection, schedule: Q01DX009 (ip), vehicle: saline with Tween-80 103 % of control | [13] 94 % of control | [14] 102 % of control | dose: 400.0 mg/kg/injection, schedule: Q01DX009 (ip), vehicle: saline with Tween-80 107 % of control

CCN(CC)CCCN=C(N)CCl
inactive: dose: 12.5 mg/kg/injection, schedule: Q01DX009 (ip), vehicle: Klucel (hydroxypropylcellulose) (HPC) 96 % of control | [15] 96 % of control | dose: 25.0 mg/kg/injection, schedule: Q04DX002 (ip), vehicle: Klucel (hydroxypropylcellulose) (HPC) 114 % of control | dose: 50.0 mg/kg/injection, schedule: Q04DX002 (ip), vehicle: Klucel (hydroxypropylcellulose) (HPC) 107 % of control | [12] 95 % of control

OCCN(CCO)c1cccc(C(F)(F)F)c1
inactive: dose: 50.0 mg/kg/injection, schedule: Q01DX001 (ip), vehicle: saline 96 % of control | dose: 100.0 mg/kg/injection, schedule: Q01DX001 (ip), vehicle: saline 100 % of control | dose: 200.0 mg/kg/injection, schedule: Q01DX001 (ip), vehicle: saline 106 % of control | dose: 400.0 mg/kg/injection, schedule: Q01DX001 (ip), vehicle: saline 96 % of control

COc1ccc2nccc(C(=O)CCC3CCN(C(=O)c4ccc([N+](=O)[O-])cc4)CC3C(CBr)CCBr)c2c1 (centres undefined)
inactive: dose: 100.0 mg/kg/injection, schedule: Q01DX001 (ip), vehicle: other 104 % of control | dose: 200.0 mg/kg/injection, schedule: Q01DX001 (ip), vehicle: other 88 % of control | dose: 400.0 mg/kg/injection, schedule: Q01DX001 (ip), vehicle: other 111 % of control

CC(=O)OC(c1ccnc2ccccc12)C1CC2CCN1CC2 (centres undefined)
inactive: dose: 50.0 mg/kg/injection, schedule: Q01DX001 (ip), vehicle: carboxymethylcellulose (CMC) 97 % of control | [1] 97 % of control | [3] 95 % of control

CC(=O)c1ccc(F)cc1
inactive: [16] 98 % of control | [9] 98 % of control | [2] 86 % of control | [10] 97 % of control | [4] 98 % of control

O=C(Nc1ccc(F)cc1)Nc1ccccc1C(F)(F)F
inactive: [9] 95 % of control | [10] 97 % of control | [11] 88 % of control

CC1(C)COP(Oc2ccccc2)OC1
inactive: [13] 100 % of control | [6] 107 % of control | [14] 97 % of control | [7] 103 % of control | [8] 107 % of control

NC(N)=N/N=C/C(N)(/C=N/N=C(N)N)/C=N/N=C(N)N
inactive: dose: 120.0 mg/kg/injection, schedule: Q01DX Z (oral), vehicle: saline 106 % of control | dose: 240.0 mg/kg/injection, schedule: Q01DX Z (oral), vehicle: saline 114 % of control | dose: 480.0 mg/kg/injection, schedule: Q01DX Z (oral), vehicle: saline 113 % of control | dose: 960.0 mg/kg/injection, schedule: Q01DX Z (oral), vehicle: saline 106 % of control

CC[CH2][Pb]([CH2]CC)([CH2]CC)[N]1C(=O)c2ccccc2C1=O
inactive: dose: 3.12 mg/kg/injection, schedule: Q01DX009 (ip), vehicle: saline 98 % of control | dose: 3.12 mg/kg/injection, schedule: Q04DX002 (ip), vehicle: saline 92 % of control | dose: 6.25 mg/kg/injection, schedule: Q01DX009 (ip), vehicle: saline 101 % of control | dose: 6.25 mg/kg/injection, schedule: Q04DX002 (ip), vehicle: saline 111 % of control | dose: 12.5 mg/kg/injection, schedule: Q04DX002 (ip), vehicle: saline 94 % of control and 111 % of control

Clc1ccc(Cl)c(-c2csc(-c3ccncc3)n2)c1
inactive: [15] 116 % of control | [16] 100 % of control | [9] 97 % of control and 103 % of control
